Results reported in patent publication US10046060B2, “Co-administration of an agent linked to an internalization peptide with an anti-inflammatory” (NoNO Inc., priority 2007, dated 2018).
Read-outs that look alike come from different tables or passages of the source. Square brackets hold non-standard residues; d marks the D form. Ends that are not written are not given here.

Experiments:
rats = test: Mean arterial pressure (MAP) in rats after Tat peptides with or without anti-inflammatory agents
mast cells = test: Mast cell degranulation assay (tryptase activity); format: cell-based, mouse; parameters: Mast cell degranulation (relative tryptase activity): dose or concentration left out as unconfirmed; details: for Dose dependence of mast cell degranulation: increasing concentrations, FIG. 3
cerebral ischemia = details: reported in WO 2008/014917; cited from earlier work
[1] = Table 1 comment; cited from earlier work
Beagle dogs = test: Antihistamine pre-treatment before Tat-NR2B9c in dogs; details: benadryl 1 mg/kg 30 minutes before 12.5 mg/kg Tat-NR2B9c; female dog
[2] = tested on: Sprague Dawley rats, P3VO model of stroke; test: Pial 3 vessel occlusion (P3VO) model of stroke, infarct size; format: in vivo, rat; details: 3 nM/g i.v. 1 h after stroke, vs saline
rat 3PVO model of stroke = test: Rat 3PVO model of stroke, lodoxamide co-formulation; format: in vivo; details: FIG. 15
Procedure: Methods for Three pial vessel occlusion model of ischemia (3PVO): Experiments were performed on fasted rats (free overnight access to water but not food). […] In brief, rats were anesthetized with a 0.5 ml/kg intramuscular injection of ketamine (100 mg/kg), acepromazine (2 mg/kg), and xylazine (5 mg/kg), supplemented with one-third of the initial dose as required. A rectal temperature was monitored and the animal body temperature was maintained at 37° C. by using a heating pad. The skull was exposed via a midline incision and scraped free of tissue. Using a dissecting microscope and a pneumatic dental drill, a 6- to 8-mm rectangular cranial window was made over the right somatosensory cortex (2 mm caudal and 5 mm lateral to bregma) and the loose piece of skull was removed while keeping the dura intact. The 3 pial arteriolar middle cerebral artery branches were electrically cauterized around the barrel cortex area. Incision was sutured with 3.0 silk sutures. Animals were returned to individual cages under a heating lamp to maintain body temperature until the rats fully recovered. Food and water was supplied. One hour after 3PVO ischemia the rats were injected with 3 μM/kg Tat-NR2B9c or Rv-Tat-NR2B9c intravenously through tail vein. […] Images were scanned (CanoScan, 4200F, Canon). Infarct percentage was calculated per slice using Image J software (NIH). […]

PSD95 / NMDAR 2B = PSD95 / NMDAR 2B (Homo sapiens, UniProt P78352); details: reported by Bach; cited from earlier work
Sprague Dawley rats = test: MAP in rats: lodoxamide co-formulation or cromolyn infusion with Tat-NR2B9c; format: in vivo, rat; details: for Effect on drop in MAP resulting from Tat-NR2B9c: cromolyn infused for three minutes immediately before Tat-NR2B9c, FIG. 13B
Procedure: Animals (male, Sprague Dawley) were allowed to eat and drink before surgery. Animals were put to sleep in a chamber with 2% isoflurane and 1 L oxygen. Once asleep, rat was transferred to a face mask at 1% isoflurane and a gas of 1 L oxygen. PE50 tubing was used for connection of the femoral artery and vein. These arteries and veins provide access for continual monitoring of arterial pressure and for drug infusion (50 mg per kg in a volume of 2 ml per kg injected with in 2 minutes). Surgeries were done on the left side. Animal's blood pressure and body temperature was monitored for 90 minutes.

[3] = tested on: animal model of infarction; details: cited from earlier work

PSD95 / NMDAR 2B, sequence (P78352 whole entry, the tested form may be a part): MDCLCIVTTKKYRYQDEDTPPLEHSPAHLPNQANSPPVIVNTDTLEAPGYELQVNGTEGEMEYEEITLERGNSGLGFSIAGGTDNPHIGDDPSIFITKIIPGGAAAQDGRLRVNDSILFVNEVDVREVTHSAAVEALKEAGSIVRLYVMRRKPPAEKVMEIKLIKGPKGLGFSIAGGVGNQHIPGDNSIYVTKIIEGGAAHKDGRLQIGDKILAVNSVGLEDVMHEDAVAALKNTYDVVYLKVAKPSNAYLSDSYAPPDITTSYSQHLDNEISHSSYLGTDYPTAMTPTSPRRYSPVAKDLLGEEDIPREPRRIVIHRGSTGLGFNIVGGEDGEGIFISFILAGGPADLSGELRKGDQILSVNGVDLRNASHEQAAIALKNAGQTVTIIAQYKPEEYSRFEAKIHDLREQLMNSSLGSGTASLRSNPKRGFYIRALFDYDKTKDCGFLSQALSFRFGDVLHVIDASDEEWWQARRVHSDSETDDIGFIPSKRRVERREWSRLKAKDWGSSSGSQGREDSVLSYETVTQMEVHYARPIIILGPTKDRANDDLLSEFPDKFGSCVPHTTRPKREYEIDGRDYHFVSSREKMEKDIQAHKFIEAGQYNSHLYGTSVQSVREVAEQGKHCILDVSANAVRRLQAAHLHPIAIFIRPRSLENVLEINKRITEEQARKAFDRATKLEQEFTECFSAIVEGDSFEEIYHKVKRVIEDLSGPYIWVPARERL

Q: Which “Effect of the agent itself on MAP” value (rats; Ranitidine only) does the source give for `CNC(=C[N+](=O)[O-])NCCSCc1ccc(CN(C)C)o1` [Ranitidine] here?
A: no effect on MAP itself

Q: Which “Dose dependence of mast cell degranulation” value (mast cells) does the source give for “YGRKKRRQRRRKLSSIEADA (Synthetic Tat-NR2B9c peptide with 2 point mutations in the PSD-95 binding domain) [AA]” here?
A: dose dependent

Q: Which “Inhibition of cerebral ischemia” value (cerebral ischemia) does the source give for “vdseisslk-rrrqrrkkrgyin ([dV][dD][dS][dE][dI][dS][dS][dL][dK][dR][dR][dR][dQ][dR][dR][dK][dK][dR]G[dY][dI][dN]; also: retro-inverso)” here?
A: effective in inhibiting cerebral ischemia

Q: For `NC(=O)CN1CCCC1=O` [Piracetam], which BBB crossing [1] is on record?
A: Cannot cross

Q: For `CN(C)CCOC(c1ccccc1)c1ccccc1` [diphenhydramine], which “Effect of the agent itself on blood pressure” value (rats; diphenhydramine 1 mg/kg) is on record?
A: did not itself reduce blood pressure

Q: And the “Effect on decline of blood pressure due to Tat-NR2B9c” value (rats; diphenhydramine 1 mg/kg)?
A: not observed to have a significant effect

Q: What about the “Effect of the agent itself on blood pressure before Tat-NR2B9c” value (rats; diphenhydramine 12.5 mg/kg) of the same molecule?
A: caused a sharp reduction in blood pressure

Q: What about the “Effect on decline in blood pressure due to Tat-NR2B9c” value (rats; diphenhydramine 12.5 mg/kg, FIGS. 9A-D) of the same molecule?
A: significantly inhibited decline in blood pressure

Q: And the Reaction after pre-treatment (Beagle dogs)?
A: no reaction

Q: With H-YGRKKRRQRRRKLSSIESDV-OH [Tat-NR2B9c] as the molecule, how does the “Dose dependence of mast cell degranulation” value (mast cells) read?
A: dose dependent

Q: And the “Infarct size 24 hours after P3VO surgery” value ([2]; female rats)?
A: complete lack of infarct

Q: And the “Infarct size 24 hours after P3VO surgery” value ([2]; male rats)?
A: significantly decreased infarct size

Q: What about the “Infarction size relative to vehicle control” value (rat 3PVO model of stroke) of the same molecule?
A: significantly inhibited infarction size

Q: Which “Inhibition of binding of NMDAR 2B to PSD95” value (PSD95 / NMDAR 2B) does the source give for “IESDV (synthetic pentamer peptide from the C-terminus of NMDAR 2B)” here?
A: effective in inhibiting binding of NMDAR 2B to PSD95

Q: Which “Mast cell degranulation (relative tryptase activity)” value (mast cells; FIG. 2) does the source give for “KLSSIESDV (Synthetic pharmacologic agent) [NR2B9c]” here?
A: did not

Q: What about the “Mast cell degranulation, Tat sequence variants” value (mast cells; all at 50 μM, Table 5 prints 125 mg/ml, FIG. 4) of the same molecule?
A: did not elicit this reaction

Q: Which halflife [1] does the source give for `CN[C@H](CC(C)C)C(=O)N[C@H]1C(=O)N[C@@H](CC(N)=O)C(=O)N[C@H]2C(=O)N[C@H]3C(=O)N[C@H](C(=O)N[C@H](C(=O)O)c4cc(O)cc(O)c4-c4cc3ccc4O)[C@H](O)c3ccc(c(Cl)c3)Oc3cc2cc(c3O[C@@H]2O[C@H](CO)[C@@H](O)[C@H](O)[C@H]2O[C@H]2C[C@](C)(N)[C@H](O)[C@H](C)O2)Oc2ccc(cc2Cl)[C@H]1O` [Vacomycin] here?
A: uptake, 4-6 hr

Q: With `N#Cc1cc(NC(=O)C(=O)O)c(Cl)c(NC(=O)C(=O)O)c1` [lodoxamide, 2-[2-chloro-5-cyano-3-(oxaloamino)anilino]-2-oxoacetic acid] as the molecule, how does the “Effect on drop in MAP resulting from Tat-NR2B9c injection” value (Sprague Dawley rats; 6 mg/kg lodoxamide co-formulated with Tat-NR2B9c (3 mg/kg, 3 mM/kg elsewhere in the source), 2 minute infusion, FIG. 13A) read?
A: completely abrogate the drop in MAP

Q: With `COc1ccc(CN(CCN(C)C)c2ccccn2)cc1` [pyrilamine] as the molecule, how does the “Reduction of maximal decline in blood pressure due to Tat-NR2B9c” value (rats; pyrilamine, FIGS. 10A-D) read?
A: did not achieve statistical significance

Q: Which results are given for `O=C(O)c1cc(=O)c2c(OCC(O)COc3cccc4oc(C(=O)O)cc(=O)c34)cccc2o1` [cromolyn, 5,5′-(2-hydroxypropane-1,3-diyl)bis(oxy)bis(4-oxo-4H-chromene-2-carboxylic acid)]?
A: Effect on drop in MAP resulting from Tat-NR2B9c (Sprague Dawley rats): completely abrogate a drop in MAP; Effect on drop in MAP resulting from Tat-NR2B9c (Sprague Dawley rats; listed as Cromolyn): completely abrogated the drop in MAP; Direct activity in inhibiting infarctions ([3]; administered i.c.v.): has direct activity in inhibiting infarctions; Direct activity in inhibiting infarctions ([3]; administered intravenously): not intravenously; Effect on decline of MAP due to Rv-Tat-NR2B9c (rats; cromolyn before Rv-Tat-NR2B9c, FIGS. 8E and F): significantly inhibited decline of MAP values; Effect on MAP in the absence of Tat-NR2B9c (rats; cromolyn plus saline control): did not itself affect MAP

Q: Which halflife [1] does the source give for `N[C@@H](Cc1ccc(O)c(O)c1)C(=O)O` [Levodopa] here?
A: halflife = 1.5 hrs

Q: With `NCCc1ccc(O)c(O)c1` [Dopamine] as the molecule, how does the BBB crossing [1] read?
A: Cannot cross
